Assay results from US9803164B2, “Megakaryocyte and platelet production from stem cells” (priority 2011, dated 2017).
Residues, ends and D or L forms follow the SMILES beside them. *: point of attachment. Cbz = O=C(OCc1ccccc1)*; CH2F = FC*

Legend:
Type in all cases: cell-based
[1] = tested on: platelets collected from the bioreactor; experiment: Platelet surface expression of P-selectin after activation, flow cytometry; details: PMA 10 μg/mL, 15 min, room temperature; 25% at baseline
Procedure: Platelets collected from the bioreactor were tested for their function based on the externalization of P-Selectin after activation with phorbol myristate acetate (PMA) using flow cytometry. Platelets were collected in eppendorf tubes, labeled with Alexa 647-conjugated anti-CD41 antibody, PE-conjugated anti-CD-62P (Becton Dickinson) and a live cell stain, Calcein AM (Sigma-Aldrich) for 15 min at room temperature. Next, platelets were activated using PMA (Sigma Aldrich) 10 μg/mL for 15 min at room temperature. Cells were then analyzed by flow cytometry for P-Selectin externalization. Anti-Y1-PE (Becton Dickinson) was used as an isotype control.

UCB derived CD34 cells = experiment: Expansion of UCB derived CD34 enriched cells in serum-free suspension culture with reagents; details: control mean 40-fold, n=3; for CD34 fold expansion (mean): day 7 of culture, SR-1 0.75 μM, TEPA 5 μM, zVADfmk 100 nM, SCF, TPO, FLT3-ligand 50 ng/ml
Procedure: Umbilical cord blood units not suitable for clinical use were obtained from the New York Blood Center National Cord Blood Bank, where they were collected after informed consent in accord with the Declaration of Helsinki. Isolation of umbilical cord blood CD34 cells was performed using either a positive selection or a negative selection method. The positive selection method used has been described in G. Mattia et al., Different ploidy levels of megakaryocytes generated from peripheral or cord blood CD34+ cells are correlated with different levels of platelet release, 99(3) BLOOD 888 (February 2002). Briefly, mononuclear cells were layered on a Ficoll-Hypaque gradient (GE Healthcare, Barrington, Ill.), washed twice with phosphate-buffered saline (PBS) (Life Technologies) supplemented with 5% fetal bovine serum (FBS) (Life Technologies). To purify CD34 cells, the mononuclear selection fraction was subject to two cycles of immunomagnetic bead separation using a MINIMACS CD34 isolation kit (Miltenyi Biotech, Auburn, Calif.), according to manufacturer's recommendations. The purity of the sample ranged from 70% to 90% CD34 positive and was approximately 30% CD41 positive based on flow cytometry analysis.
The negative selection method was based on previously described methods where umbilical cord blood-derived CD34 cells were enriched by a negative selection method with the use of ROSETTESEP (Stem Cell Technologies, Vancouver, Canada). M. P. Avanzi et al., Optimizing megakaryocyte polyploidization by targeting multiple pathways of cytokinesis, 52(11) TRANSFUSION 2406 (November 2012). Briefly, cells were washed with phosphate buffered saline (PBS, Life Technologies) and incubated with ROSETTESEP reagent for 10 min at room temperature. Next, cells were layered on a Ficoll-Hypaque gradient, washed twice with phosphate-buffered saline. The final product was approximately 20% to 30% CD34 positive and 30% CD41 positive.
UCB derived CD34 enriched cells were plated at a density of 1×10^4 per well (24 well plate) in suspension culture and combined with one of the following reagents: STEM REGENIN-1 (StemCell Technologies, Vancouver, BC), 0.75 μM; copper chelator tetraethylenepentamine, 5 μM (TEPA) (Sigma Aldrich, St Louis, Mo.); or zVADfmk, 100 nM (Abcam, Cambridge, Mass.). Reagents were added with culture medium and cytokine cocktail on day 0, 4, 7 and 10 of culture. Additionally, in separate experiments, CD34 enriched cells were expanded on NANEX nanofiber membranes (Arteriocyte, Cleveland Ohio). […]
All flow cytometry experiments where performed with a BD FACS LSR FORTESSA machine (Becton Dickinson, San Jose, Calif.) and analyzed with BD FACSDIVA software (Becton Dickinson). […] Labeled cells were then analyzed and counted.

[2] = tested on: megakaryocytes (CD41 cells); experiment: Megakaryocyte ploidy by flow cytometry after induction of polyploidization; details: day 11; treated once on day 8; latrunculin 10 μg/ml or Y27632 10 μM; controls less than 10%; p=0.007, n=3
Procedure: (§1) At the completion of the megakaryocyte differentiation stage on day 8, megakaryocytes were stimulated to undergo polyploidization by adding either the actin polymerization inhibitor, latrunculin (Santa Cruz Biotechnologies, Dallas, Tex.), at a final concentration of 10 μg/ml, or the Rho-kinase inhibitor, Y27632 (Sigma Aldrich, St. Louis, Mo.), at 10 μM, and then culturing the cells for an additional 3 or 4 days.
Megakaryocyte ploidy was analyzed on day 11 of culture. Cells were labeled with Alexa 647-conjugated anti-CD41 antibody, incubated for 20 min on ice, fixed with 4% paraformaldehyde (Fisher Scientific) for 15 minutes and then washed with PBS. Next, cells were permeabilized with methanol 75% (Sigma Aldrich) for 1 hour at 4° C. and washed with PBS+BSA, 2%+NP40, 0.05% (Fischer Scientific) solution. Finally cells were treated with Propidium Iodide/RNase solution (Becton Dickinson) and incubated for 30 minutes in the dark at room temperature before flow cytometry analysis.

megakaryocytes = experiment: Proplatelet formation quantification (grid strategy); details: day 11; treated on day 8; p=0.02, n=3
Procedure: as §1
Proplatelet formation was quantified on day 11 of culture using a grid strategy, as previously described by M. P. Avanzi et al., Rho kinase inhibition drives megakaryocyte polyploidization and proplatelet formation through MYC and NFE2 downregulation, 164(6) BR. J HAEMATOL. 867 (March 2014). Briefly, using an inverted light microscope (Olympus CKX41) 10 random-field images were acquired at 40× magnification from each well. All megakaryocytes present on each field were counted. A counting grid with 25 μm squares was used to enumerate the number of proplatelet processes. Each proplatelet segment inside each square was counted and the sum of all segments in 10 random field images (40× magnification) was used for comparison. From these numbers, a measure of proplatelet density per cell per unit area was generated and used to compare the results of different culture conditions.

Row | Compound | CD34 fold expansion (mean) (UCB derived CD34 cells) | Proportion of megakaryocytes with ploidy >8 [2] | Proplatelets generated compared with control megakaryocytes (megakaryocytes) | also measured
1 | CCCCCCCCCCCCCC(=O)O[C@@H]1[C@@H](C)[C@@]2(O)[C@@H](C=C(CO)C[C@]3(O)C(=O)C(C)=C[C@@H]23)[C@@H]2C(C)(C)[C@]12OC(C)=O [PMA, phorbol 12-myristate 13-acetate] |  |  |  | Particles expressing p-selectin after stimulation [1]: 65%
2 | CC(C)n1cnc2c(NCCc3ccc(O)cc3)nc(-c3csc4ccccc34)nc21 [SR-1, stem regenin-1] | 85 fold |  |  | CD34 fold expansion versus control culture (significance) (UCB derived CD34 cells; day 7): not significantly different
3 | NCCNCCNCCNCCN [TEPA, tetraethylenepentamine] | 19 fold |  |  | 
4 | C[C@@H](N)[C@H]1CC[C@H](C(=O)Nc2ccncc2)CC1 [Y27632] |  | 30% | significantly more | 
5 | COC(=O)CC(NC(=O)C(C)NC(=O)C(NC(=O)OCc1ccccc1)C(C)C)C(=O)CF (stereo not drawn) [zVADfmk, benzyloxycarbonyl-Val-Ala-Asp (OMe) fluoromethylketone] (Cbz-Val-Ala-Asp(OMe)-CH2F; configuration not given here) | 25 fold |  |  | 
6 | latrunculin |  | 30% | significantly more | 
